Square brackets hold non-standard residues; d marks the D form. Ends that are not written are not given here. Peptide text beside a SMILES is read from it. hArg = N=C(N)NCCCC[C@H](N)C(=O)O; Nle = CCCC[C@H](N)C(=O)O; Aib = CC(C)(N)C(=O)O
What was measured:
[1] = biological target: T1, human P1R (Homo sapiens, UniProt Q03431); experiment: cAMP stimulation in HKRK-B28 cells; type: cell-based; conditions: basal 4.0 ± 0.1 pmole/well not subtracted
T1 construct: expressed in transfected cells; host or cells: HKRK-B28 (porcine kidney LLC-PK1, stably transfected)
T1 sequence (Q03431 27-593): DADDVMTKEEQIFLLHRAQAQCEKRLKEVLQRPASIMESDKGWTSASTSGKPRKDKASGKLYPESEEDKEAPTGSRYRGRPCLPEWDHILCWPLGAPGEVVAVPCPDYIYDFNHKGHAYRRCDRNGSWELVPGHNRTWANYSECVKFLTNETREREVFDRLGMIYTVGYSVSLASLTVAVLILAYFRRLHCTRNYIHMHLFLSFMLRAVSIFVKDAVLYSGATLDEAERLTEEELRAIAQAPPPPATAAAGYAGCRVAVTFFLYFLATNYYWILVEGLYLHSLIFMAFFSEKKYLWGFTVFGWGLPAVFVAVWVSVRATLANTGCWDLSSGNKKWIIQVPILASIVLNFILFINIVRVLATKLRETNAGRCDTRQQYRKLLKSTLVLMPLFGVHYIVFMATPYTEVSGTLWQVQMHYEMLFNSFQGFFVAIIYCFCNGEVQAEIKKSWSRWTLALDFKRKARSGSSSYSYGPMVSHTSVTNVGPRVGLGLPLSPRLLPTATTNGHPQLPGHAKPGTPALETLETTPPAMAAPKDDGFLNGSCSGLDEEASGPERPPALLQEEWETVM

[2] = biological target: T2, wild-type human P1R (hP1R-WT) (Homo sapiens, UniProt Q03431); experiment: cAMP stimulation in COS-7 cells expressing hP1R-WT; type: cell-based; conditions: hP1R-WT, basal 10.3 ± 1.1, asterisk = plateau not attained
T2 construct: expressed in transfected cells; host or cells: COS-7 (transient, FuGENE 6)
T2 sequence (Q03431 27-593): T1 sequence (Q03431 27-593)
Description: (§1) Cell Culture. The cell line HKRK-B28 (Takasu, H., et al., J. Bone Miner. Res. 14:11-20 (1999)) was derived from the porcine kidney cell line, LLC-PK1 by stable transfection with plasmid DNA encoding the human P1R and expresses ˜280,000 receptors per cell. These cells, as well as COS-7 cells and SaOS-2-B10 cells, were cultured at […] in T-75 flasks ([…]) in Dulbecco's modified Eagle's medium (DMEM) supplemented with fetal bovine serum (10%), penicillin G (20 units/ml), streptomycin sulfate (20 μg/ml) and amphotericin B (0.05 μg/ml) in a humidified atmosphere containing 5% CO2. Stock solutions of EGTA/trypsin and antibiotics were from GIBCO; fetal bovine serum was from Hyclone Laboratories (Logan, Utah). COS-7 cells sub-cultured in 24-well plates were transfected with plasmid DNA (200 ng per well) encoding the wild-type human P1R or truncated human P1R deleted for residues (24-181) (Shimizu, M., et al., J. Biol. Chem. 275:21836-21843 (2000)) that was purified by cesium chloride/ethidium bromide density gradient centrifugation, and FuGENE 6 transfection reagent (Roche Indianapolis Ind.) according to the manufacturer's recommended procedure. All cells, in 24-well plates, were treated with fresh media and shifted to 33° C. for 12 to 24 h prior to assay.
(§2) cAMP Stimulation. Stimulation of cells with peptide analogs was performed in 24-well plates. Cells were rinsed with 0.5 mL of binding buffer (50 mM Tris-HCI, […], 5 mM KCl, 2 mM CaCl2, 5% heat-inactivated horse serum, 0.5% fetal bovine serum, adjusted to pH 7.5 with HCl) and treated with 200 μL of cAMP assay buffer (Delbecco's modified Eagle's medium containing 2 mM 3-isobutyl-1-methylxanthine, 1 mg/mL bovine serum albumin, 35 mM Hepes-NaOH, pH 7.4) and 100 μL of binding buffer containing varying amounts of peptide analog (final volume=300 μL). The medium was removed after incubation for 30 to 60 minutes at room temperature, and the cells were frozen on dry ice, lysed with 0.5 mL 50 mM HCl, and refrozen ([…]). The cAMP content of the diluted lysate was determined by radioimmunoassay. The EC50 response values were calculated using nonlinear regression (see below).
(§3) Data Calculation. Calculations were performed using Microsoft® Excel. Nonlinear regression analyses of binding and cAMP dose-response data were performed using the four-parameter equation: yp=Min+[(Max−Min)/(1+(IC50/x)^slope)]. The Excel Solver function was utilized for parameter optimization, as described previously (Carter, P. H., et al., Endocrinology 140: 4972-4981 (1999); Bowen, W. P., and Jerman, J. C., Trends in Pharmacol. Sci. 16: 413-417 (1995)). Differences between paired data sets were statistically evaluated using a one-tailed Student's t-test, assuming unequal variances for the two sets.

[3] = biological target: T3, P1R-delNt, truncated human P1R deleted for residues (24-181) (Homo sapiens, UniProt Q03431); experiment: cAMP stimulation in COS-7 cells expressing hP1R-delNt; type: cell-based; conditions: hP1R-delNT, basal 9.5 ± 1.3, asterisk = plateau not attained
T3 construct: expressed in transfected cells; host or cells: COS-7 (transient, FuGENE 6)
T3 sequence (Q03431 with tags, fused parts or gaps limits assumed): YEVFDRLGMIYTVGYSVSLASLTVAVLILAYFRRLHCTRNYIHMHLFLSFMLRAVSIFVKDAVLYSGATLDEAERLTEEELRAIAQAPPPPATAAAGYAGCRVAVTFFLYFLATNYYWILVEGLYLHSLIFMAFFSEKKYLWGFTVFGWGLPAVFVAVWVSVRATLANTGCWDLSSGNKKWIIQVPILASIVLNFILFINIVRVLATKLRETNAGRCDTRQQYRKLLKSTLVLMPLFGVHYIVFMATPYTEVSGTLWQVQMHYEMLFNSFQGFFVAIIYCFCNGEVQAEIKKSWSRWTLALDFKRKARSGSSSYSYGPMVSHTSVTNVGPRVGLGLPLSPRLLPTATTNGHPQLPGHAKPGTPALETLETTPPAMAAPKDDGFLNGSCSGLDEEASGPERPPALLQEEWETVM
Description: as §1, §2, §3
The possibility that the activity-enhancing effects of the Aib substitutions at positions 1 and 3 were mediated through the juxtamembrane (J) region of the receptor was investigated in COS-7 cells transiently transfected with P1R-delNt. P1R-delNt was a truncated P1R that lacked most of the amino-terminal extracellular domain.

[4] = biological target: T2, wild-type human P1R (hP1R-WT); experiment: Competition binding in COS-7 cells expressing hP1R-WT; conditions: P1R-WT; Scatchard transformation of homologous competition binding; read-out: apparent equilibrium dissociation constant (KDapp)
Description: as §1
Competition Binding. Binding reactions were performed with HKRK-B28 cells or in COS-7 cells in 24-well plates. The cells were rinsed with 0.5 mL of binding buffer, and then treated successively with 100 μL binding buffer, 100 μL of binding buffer containing various amounts of unlabeled competitor ligand, and 100 μL of binding buffer containing ca. 100,000 cpm of ^125I-[M]PTH(1-21) or ^125I-[Aib^1,3,M]PTH(1-21)} (ca. 26 fmol; final volume=300 μL). Incubations were 4 to 6 h at 4° C., at which time near equilibrium conditions were attained. Cells were then placed on ice, the binding medium was removed, and the monolayer was rinsed three times with 0.5 mL of cold binding buffer. The cells were subsequently lysed with 0.5 mL […] and counted for radioactivity. For each tracer and in each experiment, the non-specific binding was determined as the radioactivity that bound in the presence of the same unlabeled peptide at a concentration of 1 μM, and was ˜1% of total radioactivity added for each tracer. The maximum specific binding (B0) was the total radioactivity bound in the absence of competing ligand, corrected for nonspecific binding, and for each tracer, ranged from 8% to 20% of the total radioactivity added. Nonlinear regression was used to calculate binding IC50 values (see below). Scatchard transformations of homologous competition binding data derived from studies with 26 fmol of ^125I-[Aib^1,3,M]PTH(1-21) were employed for estimations of apparent equilibrium dissociation constant (kDapps) and total number of ligand binding sites (Bmax), assuming a single class of binding sites and equal affinities of the iodinated and non iodinated ligand.
Data Calculation. Calculations were performed using Microsoft® Excel. Nonlinear regression analyses of binding and cAMP dose-response data were performed using the four-parameter equation: yp=Min+[(Max−Min)/(1+(IC50/x)^slope)]. […] Differences between paired data sets were statistically evaluated using a one-tailed Student's t-test, assuming unequal variances for the two sets. […]

[5] = biological target: T3, P1R-delNt, truncated human P1R deleted for residues (24-181); experiment: Competition binding in COS-7 cells expressing hP1R-delNt; conditions: COS-7 cells
[6] = Circular dichroism spectroscopy (helical content); type: physicochemical
Description: Circular Dichroism. Circular Dichroism spectra were recorded on a Jasco model 710 spectropolarimeter; peptides were analyzed at a concentration of20 μM in 50 mM sodium phosphate buffer pH 7.4, or the same buffer containing 2,2,2-trifluoroethanol at 20% (v/v). Spectroscopic scans were preformed at 20° C. and at wavelengths between […], with data recored at each 1 nM interval. The spectral bandwidth was 1.5 nM and 8 scans were accumulated and averaged for each sample. At each wavelength, the mean residue elipticity [θ×100/l×C×n); where θ is the raw elipticity value (in dimensions of millidegree), l is the sample path length, C=is the molar peptide concentration, and n is the number of residues in the peptide (Bowen, W. P., and Jerman, J. C., Trends in Pharmacol. Sci. 16: 413-417 (1995)). The helical content of each peptide was estimated by dividing [θ] observed at 222 nM for that peptide by −28,100, which is the reported [θ]222obs for a model helical decapeptide (Bowen, W. P., and Jerman, J. C., Trends in Pharmacol. Sci. 16: 413-417 (1995)).
Circular dichroism (CD) spectroscopy was used to analyze the potential effects that the Aib substitutions had on peptide secondary structure when the peptides were free in solution. Samples were analyzed in both aqueous phosphate buffer and in phosphate buffer containing 2,2,2-trifloroethanol, an organic solvent which promotes helical structure in oligopeptides, including PTH peptide fragments (Pellegrini, M., et al., J. Biol. Chem. 273:10420-10427 (1998); Gronwald, W., et al., Biol. Chem. Hoppe Seyler 377:175-186 (1996); Barden, J. A., and Kemp, B. E., Biochemistry 32:7126-7132 (1993)). In phosphate buffer, the helical content of each peptide, estimated from the elipticity observed at 222 nM, was small (≦16%); however, [Aib^1,3,M]PTH(1-14) contained nearly twice as much helix as did [M]PTH(1-14) (16% and 8.1% respectively), as did [Aib^1,3,M]PTH(1-1l), as compared to […] (13% and 7.5% respectively, Table 4). […] The higher helical contents of these two peptides were evident not only from the negative elipticities at […] and 222 nM, but also from the positive elipticities at 192 nM (FIG. 6).

[7] = biological target: T1, human P1R; conditions: HKRK-B28 cells; previously shown (Shimizu et al., Endocrinology 2001); read-out: cAMP EC50; cited from earlier work

| Compound | cAMP EMax(obs.) [1] [pmole/well] | cAMP EMax(obs.) [2] [pmole/well] | cAMP EMax(obs.) [3] [pmole/well] | Kd [4] [nM] | affinity at P1R-delNt, fold weaker than at P1R-WT [5] [fold] | Binding IC50 ([5]; hP1R-delNT, tracer 125I-[Aib^1,3,M]PTH(1-21), N.B. = no inhibition of tracer binding) | [0]222obs × 10^−3, Phos. ([6]; 20 μM peptide, 50 mM phosphate buffer pH 7.4) | [0]222obs × 10^−3, Phos + TFE ([6]; 20 μM peptide, 50 mM phosphate buffer with trifluoroethanol (20%)) | helical residues (%), Phos + TFE ([6]; 50 mM phosphate buffer with trifluoroethanol (20%), from elipticity at 222 nM) [%] | helical residues (%), Phos. ([6]; 50 mM phosphate buffer, from elipticity at 222 nM) [%] | EC50 [7] [nM] |
| --- | --- | --- | --- | --- | --- | --- | --- | --- | --- | --- | --- |
| CCCC[C@H](NC(=O)[C@H](CC(C)C)NC(=O)[C@H](CCC(N)=O)NC(=O)[C@@H](NC(=O)[C@H](CCC(=O)O)NC(=O)C(C)(C)NC(=O)[C@@H](NC(=O)C(C)(C)N)C(C)C)[C@@H](C)CC)C(=O)N[C@@H](Cc1c[nH]cn1)C(=O)N[C@@H](CCC(N)=O)C(=O)N[C@@H](CCCCNC(=N)N)C(=O)N[C@@H](C)C(=O)N[C@@H](CCCCN)C(=O)N[C@@H](Cc1c[nH]c2ccccc12)C(=O)N[C@@H](CC(C)C)C(=O)N[C@@H](C)C(=O)N[C@@H](CO)C(=O)N[C@H](C(=O)N[C@@H](CCCNC(=N)N)C(=O)N[C@@H](CCCNC(=N)N)C(=O)N[C@@H](Cc1ccc(O)cc1)C(N)=O)C(C)C [[Aib^1,3,M]PTH(1-21), AibValAibGluIleGlnLeuNleHisGlnHarAlaLysTrpLeu-AlaSerValArgArtTyr] (H-[Aib]V[Aib]EIQL[Nle]HQ[hArg]AKWLASVRRY-NH2) | 284 ± 76 | 300 ± 30 | 240 ± 20 | 17 ± 2 | < 2 | effectively inhibited the binding |  |  |  |  |  |
| [Ala^3,Gln^10,Har^11]PTH(1-11)amide [[M]PTH(1-11)] |  |  |  |  |  |  | −2.1 | −9.9 | 35 | 7.5 | 3000 |
| [Ala^3,Gln^10]PTH(1-10) (SVAEIQLMHQ-NH2; UniProt P01270 32-41, looked up, variant S3A N10Q) |  |  |  |  |  |  |  |  |  |  | ~800000 |
